Measured values taken from the NIST ThermoML archive (doi:10.1021/je800046k).

Assay: xn = mol fraction of the nth substance listed
Settings: for surface tension liquid-gas: Pendant drop shape; for mass density: 101 kPa, Liquid

Cc1ccc(C)c(C)c1 [1,2,4-trimethylbenzene] + CC(=O)OC(C)C
Settings	mass density [kg/m3]	surface tension liquid-gas [mN/m]
298.15 K, x2 = 0	871.71	29.3
298.15 K, x2 = 0.0492	871.44	28.8
298.15 K, x2 = 0.101	871.17	28.25
298.15 K, x2 = 0.1507	870.9	27.69
298.15 K, x2 = 0.1995	870.64	27.13
298.15 K, x2 = 0.251	870.36	26.6
298.15 K, x2 = 0.3006	870.1	26.09
298.15 K, x2 = 0.3513	869.83	25.6
298.15 K, x2 = 0.4008	869.56	25.15
298.15 K, x2 = 0.45	869.3	24.75
298.15 K, x2 = 0.4998	869.03	24.34
298.15 K, x2 = 0.5498	868.76	23.99
298.15 K, x2 = 0.6007	868.49	23.64
298.15 K, x2 = 0.6492	868.23	23.33
298.15 K, x2 = 0.7004	867.95	23.05
298.15 K, x2 = 0.7501	867.68	22.78
298.15 K, x2 = 0.7968	867.42	22.56
298.15 K, x2 = 0.8495	867.12	22.34
298.15 K, x2 = 0.8995	866.84	22.15
298.15 K, x2 = 0.9492	866.55	21.99
308.15 K, x2 = 0	863.68	28.24
308.15 K, x2 = 0.0488	863.27	27.69
308.15 K, x2 = 0.0999	862.84	27.12
308.15 K, x2 = 0.1499	862.42	26.56
308.15 K, x2 = 0.2002	861.99	26
308.15 K, x2 = 0.2504	861.56	25.48
308.15 K, x2 = 0.3001	861.13	24.96
308.15 K, x2 = 0.3519	860.67	24.47
308.15 K, x2 = 0.4	860.24	24.04
308.15 K, x2 = 0.45	859.79	23.62
308.15 K, x2 = 0.4964	859.37	23.24
308.15 K, x2 = 0.5495	858.89	22.86
308.15 K, x2 = 0.6008	858.42	22.51
308.15 K, x2 = 0.6499	857.96	22.21
308.15 K, x2 = 0.7004	857.49	21.88
308.15 K, x2 = 0.7494	857.03	21.67
308.15 K, x2 = 0.7986	856.55	21.43
308.15 K, x2 = 0.85	856.05	21.2
308.15 K, x2 = 0.8997	855.56	21.05
308.15 K, x2 = 0.9498	855.05	20.89
313.15 K, x2 = 0	859.58	27.71
313.15 K, x2 = 0.0494	859.1	27.14
313.15 K, x2 = 0.0983	858.61	26.56
313.15 K, x2 = 0.1504	858.09	26
313.15 K, x2 = 0.1999	857.59	25.44
313.15 K, x2 = 0.2506	857.07	24.93
313.15 K, x2 = 0.3004	856.55	24.41
313.15 K, x2 = 0.3508	856.02	23.92
313.15 K, x2 = 0.3995	855.5	23.51
313.15 K, x2 = 0.4493	854.97	23.08
313.15 K, x2 = 0.4992	854.43	22.65
313.15 K, x2 = 0.5492	853.88	22.29
313.15 K, x2 = 0.6	853.32	21.94
313.15 K, x2 = 0.6493	852.77	21.65
313.15 K, x2 = 0.6995	852.2	21.33
313.15 K, x2 = 0.7501	851.62	21.09
313.15 K, x2 = 0.8	851.04	20.88
313.15 K, x2 = 0.8504	850.44	20.65
313.15 K, x2 = 0.9004	849.84	20.52
313.15 K, x2 = 0.9478	849.26	20.37

Cc1cc(C)cc(C)c1 [1,3,5-trimethylbenzene] + CC(=O)OC(C)C
Settings	mass density [kg/m3]	surface tension liquid-gas [mN/m]
298.15 K, x2 = 0	861.12	28.05
298.15 K, x2 = 0.0495	861.03	27.68
298.15 K, x2 = 0.1008	861.01	27.28
298.15 K, x2 = 0.1504	860.99	26.92
298.15 K, x2 = 0.199	861.02	26.52
298.15 K, x2 = 0.2514	861.07	26.15
298.15 K, x2 = 0.2996	861.13	25.79
298.15 K, x2 = 0.351	861.25	25.42
298.15 K, x2 = 0.4009	861.36	25.07
298.15 K, x2 = 0.4502	861.53	24.71
298.15 K, x2 = 0.5002	861.71	24.37
298.15 K, x2 = 0.5497	861.96	24.05
298.15 K, x2 = 0.6001	862.22	23.72
298.15 K, x2 = 0.6502	862.53	23.42
298.15 K, x2 = 0.7003	862.88	23.14
298.15 K, x2 = 0.7496	863.29	22.88
298.15 K, x2 = 0.7987	863.73	22.65
298.15 K, x2 = 0.8498	864.28	22.46
298.15 K, x2 = 0.8998	864.85	22.28
298.15 K, x2 = 0.9505	865.52	22.06
308.15 K, x2 = 0	852.94	27.21
308.15 K, x2 = 0.0501	852.69	26.78
308.15 K, x2 = 0.0993	852.53	26.37
308.15 K, x2 = 0.1514	852.38	25.94
308.15 K, x2 = 0.2	852.27	25.55
308.15 K, x2 = 0.2514	852.16	25.16
308.15 K, x2 = 0.3018	852.09	24.8
308.15 K, x2 = 0.353	852.03	24.42
308.15 K, x2 = 0.3991	852.01	24.06
308.15 K, x2 = 0.4503	852	23.69
308.15 K, x2 = 0.4993	852.03	23.35
308.15 K, x2 = 0.5492	852.08	23.01
308.15 K, x2 = 0.6	852.18	22.67
308.15 K, x2 = 0.65	852.3	22.36
308.15 K, x2 = 0.7003	852.47	22.05
308.15 K, x2 = 0.7499	852.68	21.79
308.15 K, x2 = 0.7993	852.92	21.52
308.15 K, x2 = 0.8488	853.23	21.31
308.15 K, x2 = 0.9004	853.61	21.14
308.15 K, x2 = 0.9506	854.03	20.92
313.15 K, x2 = 0	848.82	26.78
313.15 K, x2 = 0.0498	848.53	26.33
313.15 K, x2 = 0.1001	848.29	25.9
313.15 K, x2 = 0.1495	848.08	25.45
313.15 K, x2 = 0.2006	847.88	25.06
313.15 K, x2 = 0.25	847.71	24.67
313.15 K, x2 = 0.3005	847.55	24.28
313.15 K, x2 = 0.3497	847.43	23.9
313.15 K, x2 = 0.3998	847.3	23.54
313.15 K, x2 = 0.4508	847.22	23.18
313.15 K, x2 = 0.4998	847.16	22.82
313.15 K, x2 = 0.5496	847.13	22.49
313.15 K, x2 = 0.6007	847.12	22.13
313.15 K, x2 = 0.6504	847.16	21.83
313.15 K, x2 = 0.7	847.23	21.5
313.15 K, x2 = 0.7495	847.33	21.22
313.15 K, x2 = 0.7993	847.48	20.96
313.15 K, x2 = 0.8507	847.68	20.73
313.15 K, x2 = 0.9008	847.93	20.52
313.15 K, x2 = 0.9504	848.25	20.36

CC(=O)OCC(C)C [2-methylpropyl ethanoate] + Cc1cc(C)cc(C)c1
Settings	mass density [kg/m3]	surface tension liquid-gas [mN/m]
298.15 K, x1 = 0.051	861.07	27.76
298.15 K, x1 = 0.1006	861.07	27.49
298.15 K, x1 = 0.1506	861.09	27.2
298.15 K, x1 = 0.2004	861.14	26.91
298.15 K, x1 = 0.2498	861.2	26.62
298.15 K, x1 = 0.3003	861.29	26.31
298.15 K, x1 = 0.35	861.41	26.04
298.15 K, x1 = 0.4004	861.56	25.77
298.15 K, x1 = 0.4502	861.74	25.49
298.15 K, x1 = 0.5004	861.94	25.23
298.15 K, x1 = 0.5499	862.17	24.99
298.15 K, x1 = 0.5996	862.44	24.75
298.15 K, x1 = 0.6494	862.74	24.52
298.15 K, x1 = 0.6998	863.09	24.31
298.15 K, x1 = 0.7498	863.46	24.1
298.15 K, x1 = 0.8007	863.89	23.91
298.15 K, x1 = 0.8502	864.36	23.7
298.15 K, x1 = 0.8998	864.88	23.55
298.15 K, x1 = 0.9491	865.43	23.37
298.15 K, x1 = 1	866.06	23.15
308.15 K, x1 = 0.0513	852.75	26.89
308.15 K, x1 = 0.0999	852.66	26.61
308.15 K, x1 = 0.1503	852.57	26.3
308.15 K, x1 = 0.2007	852.51	26
308.15 K, x1 = 0.2505	852.48	25.7
308.15 K, x1 = 0.3013	852.45	25.39
308.15 K, x1 = 0.35	852.46	25.1
308.15 K, x1 = 0.4002	852.49	24.82
308.15 K, x1 = 0.4506	852.56	24.55
308.15 K, x1 = 0.5	852.64	24.29
308.15 K, x1 = 0.5505	852.78	24.03
308.15 K, x1 = 0.5997	852.91	23.77
308.15 K, x1 = 0.6503	853.09	23.53
308.15 K, x1 = 0.6995	853.32	23.32
308.15 K, x1 = 0.75	853.57	23.09
308.15 K, x1 = 0.8002	853.86	22.89
308.15 K, x1 = 0.8502	854.21	22.7
308.15 K, x1 = 0.8997	854.61	22.52
308.15 K, x1 = 0.9498	855.03	22.35
308.15 K, x1 = 1	855.51	22.16
313.15 K, x1 = 0.0494	848.6	26.45
313.15 K, x1 = 0.1	848.45	26.14
313.15 K, x1 = 0.1493	848.33	25.81
313.15 K, x1 = 0.2002	848.2	25.52
313.15 K, x1 = 0.2499	848.1	25.2
313.15 K, x1 = 0.299	848.03	24.92
313.15 K, x1 = 0.3492	847.98	24.62
313.15 K, x1 = 0.3988	847.95	24.33
313.15 K, x1 = 0.4492	847.96	24.06
313.15 K, x1 = 0.5003	847.98	23.78
313.15 K, x1 = 0.5518	848.05	23.51
313.15 K, x1 = 0.5992	848.13	23.28
313.15 K, x1 = 0.6503	848.26	23.02
313.15 K, x1 = 0.6995	848.41	22.78
313.15 K, x1 = 0.7512	848.61	22.56
313.15 K, x1 = 0.8005	848.85	22.35
313.15 K, x1 = 0.8499	849.13	22.14
313.15 K, x1 = 0.9002	849.43	21.98
313.15 K, x1 = 0.9504	849.8	21.81
313.15 K, x1 = 1	850.16	21.64
